Data reported in ChEMBL document CHEMBL4396937, “Synthesis of new triazole fused imidazo[2,1-b]thiazole hybrids with emphasis on Staphylococcus aureus virulence factors” (Bioorg Med Chem Lett, 2019).
Values after ≈ are worked out from the molar mass of the structure shown. Active and inactive are the calls of the source. No cut-off for these calls is given here.

Experiments:
Staphylococcus aureus [1] = test: Antibiofilm activity against Staphylococcus aureus MLS-16 MTCC 2940 assessed as inhibition of biofilm formation by crystal violet staining-based microtitre plate assay; format: functional, organism-based
Escherichia coli [2] = test: Bactericidal activity against Escherichia coli MTCC 739 assessed as reduction in bacterial survival incubated for 24 hrs followed by transfer of microbial suspension to agar plates and measured at 24 hrs post transfer by agar well diffusion method; format: functional; details: MTCC 739, 24 h
Raoultella planticola [3] = test: Antibacterial activity against Klebsiella planticola MTCC 530 assessed as reduction in bacterial growth incubated for 24 hrs by agar well diffusion method; format: functional; details: MTCC 530, 24 h
Staphylococcus aureus [4] = test: Bactericidal activity against Staphylococcus aureus MLS-16 MTCC 2940 assessed as reduction in bacterial survival incubated for 24 hrs followed by transfer of microbial suspension to agar plates and measured at 24 hrs post transfer by agar well diffusion method; format: functional; details: MLS-16 MTCC 2940, 24 h
Candida albicans [5] = test: Fungicidal activity against Candida albicans MTCC 3017 assessed as reduction in fungal survival incubated for 24 hrs followed by transfer of microbial suspension to agar plates and measured at 24 hrs post transfer by agar well diffusion method; format: functional; details: MTCC 3017, 24 h
Escherichia coli [6] = test: Antibiofilm activity against Escherichia coli MTCC 739 assessed as inhibition of biofilm formation by crystal violet staining-based microtitre plate assay; format: functional, organism-based
Bacillus subtilis [7] = test: Antibiofilm activity against Bacillus subtilis MTCC 121 assessed as inhibition of biofilm formation by crystal violet staining-based microtitre plate assay; format: functional, organism-based
Staphylococcus aureus [8] = test: Antibacterial activity against Staphylococcus aureus MLS-16 MTCC 2940 assessed as reduction in bacterial growth incubated for 24 hrs by agar well diffusion method; format: functional; details: MLS-16 MTCC 2940, 24 h
Escherichia coli [9] = test: Antibacterial activity against Escherichia coli MTCC 739 assessed as reduction in bacterial growth incubated for 24 hrs by agar well diffusion method; format: functional; details: MTCC 739, 24 h
Micrococcus luteus [10] = test: Antibacterial activity against Micrococcus luteus MTCC 2470 assessed as reduction in bacterial growth incubated for 24 hrs by agar well diffusion method; format: functional; details: MTCC 2470, 24 h
Raoultella planticola [11] = test: Bactericidal activity against Klebsiella planticola MTCC 530 assessed as reduction in bacterial survival incubated for 24 hrs followed by transfer of microbial suspension to agar plates and measured at 24 hrs post transfer by agar well diffusion method; format: functional; details: MTCC 530, 24 h
Raoultella planticola [12] = test: Antibiofilm activity against Klebsiella planticola MTCC 530 assessed as inhibition of biofilm formation by crystal violet staining-based microtitre plate assay; format: functional, organism-based
Staphylococcus aureus [13] = test: Antibacterial activity against Staphylococcus aureus MTCC 96 assessed as reduction in bacterial growth incubated for 24 hrs by agar well diffusion method; format: functional; details: MTCC 96, 24 h
Micrococcus luteus [14] = test: Bactericidal activity against Micrococcus luteus MTCC 2470 assessed as reduction in bacterial survival incubated for 24 hrs followed by transfer of microbial suspension to agar plates and measured at 24 hrs post transfer by agar well diffusion method; format: functional; details: MTCC 2470, 24 h
Micrococcus luteus [15] = test: Antibiofilm activity against Micrococcus luteus MTCC 2470 assessed as inhibition of biofilm formation by crystal violet staining-based microtitre plate assay; format: functional, organism-based
Pseudomonas aeruginosa [16] = test: Bactericidal activity against Pseudomonas aeruginosa MTCC 2453 assessed as reduction in bacterial survival incubated for 24 hrs followed by transfer of microbial suspension to agar plates and measured at 24 hrs post transfer by agar well diffusion method; format: functional; details: MTCC 2453, 24 h
Pseudomonas aeruginosa [17] = test: Antibacterial activity against Pseudomonas aeruginosa MTCC 2453 assessed as reduction in bacterial growth incubated for 24 hrs by agar well diffusion method; format: functional; details: MTCC 2453, 24 h
Staphylococcus aureus [18] = test: Antibiofilm activity against Staphylococcus aureus MTCC 96 assessed as inhibition of biofilm formation by crystal violet staining-based microtitre plate assay; format: functional, organism-based
Bacillus subtilis [19] = test: Bactericidal activity against Bacillus subtilis MTCC 121 assessed as reduction in bacterial survival incubated for 24 hrs followed by transfer of microbial suspension to agar plates and measured at 24 hrs post transfer by agar well diffusion method; format: functional; details: MTCC 121, 24 h
Candida albicans [20] = test: Antifungal activity against Candida albicans MTCC 3017 assessed as reduction in fungal growth incubated for 24 hrs by agar well diffusion method; format: functional; details: MTCC 3017, 24 h
Bacillus subtilis [21] = test: Antibacterial activity against Bacillus subtilis MTCC 121 assessed as reduction in bacterial growth incubated for 24 hrs by agar well diffusion method; format: functional; details: MTCC 121, 24 h
Pseudomonas aeruginosa [22] = test: Antibiofilm activity against Pseudomonas aeruginosa MTCC 2453 assessed as inhibition of biofilm formation by crystal violet staining-based microtitre plate assay; format: functional, organism-based
MRC5 = test: Cytotoxicity against human MRC5 cells assessed as reduction in cell viability incubated for 48 hrs by MTT assay; format: cell-based; details: MRC5, 48 h
Staphylococcus aureus [23] = test: Bactericidal activity against Staphylococcus aureus MTCC 96 assessed as reduction in bacterial survival incubated for 24 hrs followed by transfer of microbial suspension to agar plates and measured at 24 hrs post transfer by agar well diffusion method; format: functional; details: MTCC 96, 24 h
Escherichia coli [24] = test: Antibiofilm activity against Escherichia coli MTCC 739 assessed as inhibition of biofilm formation incubated for 48 hrs in presence of Staphylococcus aureus MTCC 96 by FE-SEM analysis; format: functional, organism-based; details: MTCC 739, 48 h
Escherichia coli [25] = test: Antibiofilm activity against Escherichia coli MTCC 739 assessed as disruption of biofilm matrix with individual cell lysis at bactericidal MBC incubated for 48 hrs in presence of Staphylococcus aureus MTCC 96 by FE-SEM analysis; format: functional, organism-based
Staphylococcus aureus [26] = test: Antibiofilm activity against Staphylococcus aureus MTCC 96 assessed as disruption of biofilm matrix with individual cell lysis at bactericidal MBC incubated for 48 hrs in presence of Escherichia coli MTCC 739 by FE-SEM analysis; format: functional, organism-based
Escherichia coli [27] = test: Antibiofilm activity against Escherichia coli MTCC 739 assessed as cell lysis with damaged membrane at bactericidal MBC incubated for 48 hrs by FE-SEM analysis; format: functional, organism-based
Staphylococcus aureus [28] = test: Antibiofilm activity against Staphylococcus aureus MTCC 96 assessed as inhibition of biofilm formation incubated for 48 hrs in presence of Escherichia coli MTCC 739 by FE-SEM analysis; format: functional, organism-based; details: MTCC 96, 48 h
Staphylococcus aureus [29] = test: Antibiofilm activity against Staphylococcus aureus MTCC 96 assessed as disruption and cell damage at bactericidal MBC incubated for 48 hrs by FE-SEM analysis; format: functional, organism-based

SMILES | IC50 (Staphylococcus aureus [1]) | MBC (Escherichia coli [2]) | MIC (Raoultella planticola [3]) | MBC (Staphylococcus aureus [4]) | MFC (Candida albicans [5]) | IC50 (Escherichia coli [6]) | IC50 (Bacillus subtilis [7]) | MIC (Staphylococcus aureus [8]) | MIC (Escherichia coli [9]) | MIC (Micrococcus luteus [10]) | MBC (Raoultella planticola [11]) | IC50 (Raoultella planticola [12]) | MIC (Staphylococcus aureus [13]) | MBC (Micrococcus luteus [14]) | IC50 (Micrococcus luteus [15]) | MBC (Pseudomonas aeruginosa [16]) | MIC (Pseudomonas aeruginosa [17]) | IC50 (Staphylococcus aureus [18]) | MBC (Bacillus subtilis [19]) | MIC (Candida albicans [20]) | further results
O=C(c1cn(-c2ccc(Br)cc2)nn1)c1c(-c2ccc(Cl)cc2)nc2sccn12 | 14 µg/mL (≈ 28.9 µM) | 7.8 µg/mL (≈ 16.1 µM) | 3.9 µg/mL (≈ 8.05 µM) | 15.6 µg/mL (≈ 32.2 µM) | 15.6 µg/mL (≈ 32.2 µM) | 16.2 µg/mL (≈ 33.4 µM) | 13.5 µg/mL (≈ 27.8 µM) | 7.8 µg/mL (≈ 16.1 µM) | 3.9 µg/mL (≈ 8.05 µM) | 3.9 µg/mL (≈ 8.05 µM) | 15.6 µg/mL (≈ 32.2 µM) | 20.5 µg/mL (≈ 42.3 µM) | 3.9 µg/mL (≈ 8.05 µM) | 7.8 µg/mL (≈ 16.1 µM) | 16 µg/mL (≈ 33 µM) | 7.8 µg/mL (≈ 16.1 µM) | 3.9 µg/mL (≈ 8.05 µM) | 21.3 µg/mL (≈ 43.9 µM) | 7.8 µg/mL (≈ 16.1 µM) | 7.8 µg/mL (≈ 16.1 µM) | MIC (Bacillus subtilis [21]): 3.9 µg/mL (≈ 8.05 µM); IC50 (Pseudomonas aeruginosa [22]): 17.5 µg/mL (≈ 36.1 µM); IC50 (MRC5): 37.3 µg/mL (≈ 76.9 µM); MBC (Staphylococcus aureus [23]): 7.8 µg/mL (≈ 16.1 µM)
O=C(c1cn(-c2ccc(Br)cc2)nn1)c1c(-c2ccccc2)nc2sccn12 | 14.4 µg/mL (≈ 32 µM) | 7.8 µg/mL (≈ 17.3 µM) | 3.9 µg/mL (≈ 8.66 µM) | 7.8 µg/mL (≈ 17.3 µM) | 15.6 µg/mL (≈ 34.6 µM) | 20.2 µg/mL (≈ 44.9 µM) | 16 µg/mL (≈ 35.5 µM) | 3.9 µg/mL (≈ 8.66 µM) | 3.9 µg/mL (≈ 8.66 µM) | 7.8 µg/mL (≈ 17.3 µM) | 7.8 µg/mL (≈ 17.3 µM) | 21.1 µg/mL (≈ 46.9 µM) | 3.9 µg/mL (≈ 8.66 µM) | 15.6 µg/mL (≈ 34.6 µM) | 13.9 µg/mL (≈ 30.9 µM) | 7.8 µg/mL (≈ 17.3 µM) | 3.9 µg/mL (≈ 8.66 µM) | 21.8 µg/mL (≈ 48.4 µM) | 7.8 µg/mL (≈ 17.3 µM) | 7.8 µg/mL (≈ 17.3 µM) | MIC (Bacillus subtilis [21]): 3.9 µg/mL (≈ 8.66 µM); IC50 (Pseudomonas aeruginosa [22]): 20.2 µg/mL (≈ 44.9 µM); IC50 (MRC5): 28.1 µg/mL (≈ 62.4 µM); MBC (Staphylococcus aureus [23]): 7.8 µg/mL (≈ 17.3 µM)
O=C(c1cn(-c2ccc(Cl)cc2)nn1)c1c(-c2ccccc2)nc2sccn12 | 10.6 µg/mL (≈ 26.2 µM) | 3.9 µg/mL (≈ 9.61 µM) | 3.9 µg/mL (≈ 9.61 µM) | 3.9 µg/mL (≈ 9.61 µM) | 15.6 µg/mL (≈ 38.4 µM) | 10.3 µg/mL (≈ 25.4 µM) | 11.4 µg/mL (≈ 28.1 µM) | 1.9 µg/mL (≈ 4.68 µM) | 1.9 µg/mL (≈ 4.68 µM) | 3.9 µg/mL (≈ 9.61 µM) | 7.8 µg/mL (≈ 19.2 µM) | 14.6 µg/mL (≈ 36 µM) | 1.9 µg/mL (≈ 4.68 µM) | 7.8 µg/mL (≈ 19.2 µM) | 11.2 µg/mL (≈ 27.7 µM) | 7.8 µg/mL (≈ 19.2 µM) | 3.9 µg/mL (≈ 9.61 µM) | 9.8 µg/mL (≈ 24.1 µM) | 7.8 µg/mL (≈ 19.2 µM) | 7.8 µg/mL (≈ 19.2 µM) | IC50 (Escherichia coli [24]): 14.3 µg/mL; Activity (Escherichia coli [25]): Active; Activity (Staphylococcus aureus [26]): Active; Activity (Escherichia coli [27]): Active; IC50 (Staphylococcus aureus [28]): 14.3 µg/mL; MIC (Bacillus subtilis [21]): 3.9 µg/mL (≈ 9.61 µM); Activity (Staphylococcus aureus [29]): Active; IC50 (Pseudomonas aeruginosa [22]): 14.2 µg/mL (≈ 35 µM); IC50 (MRC5): 36.1 µg/mL (≈ 88.9 µM); MBC (Staphylococcus aureus [23]): 3.9 µg/mL (≈ 9.61 µM)
